Assay in all cases: NCI anticancer screen, dose series, 48 h
The test system of assay [1] is SW-620 colon.
Assay [2] has as its system NCI/ADR-RES ovarian.
For assay [3], the system named is MDA-N.
For assay [4], the system named is HT29 colon.
For assay [5], the system named is MALME-3M melanoma.
The subject of assay [6] is KM12 colon.
The test system of assay [7] is HS 578T breast.
Assay [8] has as its system UACC-257 melanoma.
In assay [9] the test system is RPMI-8226 leukemia.
Assay [10] deals with HOP-62 NSCLC.
For assay [11], the system named is SK-MEL-2 melanoma.
In assay [12] the test system is IGROV1 ovarian.
For assay [13], the system named is SN12C renal.
Assay [14] concerns MOLT-4 leukemia.
Assay [15] has as its system OVCAR-8 ovarian.
Assay [16] relates to BT-549 breast.
Assay [17] deals with SNB-75 CNS.
Assay [18] relates to A549 NSCLC.
The subject of assay [19] is OVCAR-4 ovarian.
In assay [20] the test system is U251 CNS.

In PubChem BioAssay (NCI) one finds TGI data, which are given here for seven compounds.

Molecules are shown by their SMILES.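 Values below derive from 48-hour exposures of cells grown in 96-well plates, with endpoints linearly interpolated between the two concentrations bracketing the appropriate inhibition level. TGI denotes the concentration required for complete inhibition of growth.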

Regarding `O=c1[nH]nc(-c2cccc(Br)c2)[nH]1`, the TGI in assay [1], in assay [2], in assay [3], in assay [4], in assay [5] and in assay [6] was above 100 µM throughout. Moreover, the TGI in assay [7] was 79.7 µM; in [8], above 100 µM; in [9], above 100 µM; in [10] it was above 100 µM; in assay [11], above 100 µM; in assay [12], above 100 µM. Further, the TGI in [13], in assay [14], in assay [15], in assay [16], in assay [17] and in assay [18] was above 100 µM each time. For the same compound, the TGI in [19] and in [20] was above 100 µM throughout.

Take `CCOC(=O)/C(O)=C(/C=NC(=S)c1ccncc1)C(=O)OCC`: the TGI in assay [1], in [2], in assay [3], in assay [4], in assay [5] and in [6] was above 100 µM each time. For the same compound, the TGI in [7], in [8], in assay [9], in assay [10], in assay [11] and in assay [12] was above 100 µM throughout. For the same compound, the TGI in assay [13], in assay [14], in [15], in [16], in assay [17] and in assay [18] was above 100 µM in each case. Further, the TGI in assay [19] and in [20] was above 100 µM throughout.

For `COC12C=CC(CC1)C(C)(C)C2=O` (stereo not given), the TGI in assay [1], in assay [2], in [3], in assay [4], in assay [5] and in [6] was above 100 µM in each case. For the same compound, the TGI in assay [7], in assay [8], in [9], in [10], in assay [11] and in assay [12] was above 100 µM in each case. Besides, the TGI in assay [13], in assay [14], in assay [15], in assay [16], in assay [17] and in assay [18] was above 100 µM throughout. For the same compound, the TGI in assay [19] and in assay [20] was above 100 µM in each case.

Consider `CC(C)NC(=O)OCc1c(COC(=O)NC(C)C)c(-c2ccc[n+](COC(=O)CC(C)(C)C)c2)n2c1CCC2`, for which the TGI in [1], in assay [2], in [3], in assay [4], in [5] and in [6] was above 100 µM in each case. The TGI in assay [7], in assay [8], in [9], in assay [10], in assay [11] and in assay [12] was above 100 µM in each case. Moreover, the TGI in assay [13], in [14], in assay [15], in assay [16], in assay [17] and in assay [18] was above 100 µM in each case. Further, the TGI in assay [19] and in assay [20] was above 100 µM in each case.

As to `NCCc1nc(-c2nc(C(=O)O)cs2)cs1`, the TGI in [1], in assay [2], in [3], in [4], in assay [5] and in assay [6] was above 100 µM in each case. The TGI in assay [7], in [8], in assay [9], in assay [10], in assay [11] and in assay [12] was above 100 µM in each case. The TGI in assay [13], in assay [14], in assay [15], in assay [16], in [17] and in assay [18] was above 100 µM each time. The TGI in assay [19] and in assay [20] was above 100 µM throughout.

As to `CC(=O)NNc1nc(C)c(C(/C=C/c2cccc([N+](=O)[O-])c2)=N/NC(=S)NN)s1`, the TGI in assay [1], in [2], in assay [3], in assay [4], in [5] and in [6] was above 100 µM throughout. Moreover, the TGI in assay [7], in assay [8], in [9], in assay [10], in [11] and in [12] was above 100 µM in each case. The TGI in assay [13], in [14], in [15], in assay [16], in assay [17] and in assay [18] was above 100 µM throughout. For the same compound, the TGI in [19] and in [20] was above 100 µM each time.

For `CSc1nc(Cl)c2c(n1)Sc1nc3cc4c(cc3n1C2O)OCO4` (stereo not given), the TGI in assay [1] was above 81.8 µM; in assay [2] it was 5.72 µM; in assay [3], 36.1 µM; in assay [4] it was 7.55 µM; in [5], 63.9 µM; in assay [6], above 100 µM. The TGI in [7] was above 30.4 µM; in assay [8] it was above 100 µM; in assay [9], above 20.8 µM; in [10] it was 16.7 µM; in assay [11], above 64.4 µM; in assay [12] it was above 72.2 µM. Further, the TGI in assay [13] was 32.4 µM; in assay [14], above 100 µM; in assay [15], 3.85 µM; in assay [16], above 31.3 µM; in [17], above 100 µM; in assay [18], above 47.9 µM. In addition, the TGI in [19] was above 100 µM; in [20] it was above 50.1 µM.
